Experimental data taken from patent US20060140994A1, “Application of an antimicrobial agent on an elastomeric article” (priority 2004, published 2006).

System: Staphylococcus aureus (ATCC #27660)
Assay: Rapid Germicidal Time Kill, ASTM protocol 04-123409-106
Assay type: cell-based
Conditions: for log reduction of organisms: nitrile gloves, versus applied organisms estimated from latex control
Experimental: To test the antimicrobial efficacy of a polyhexamethylene biguanide, such as available commercially under the trademark Cosmosil® CQ from Arch Chemicals, Inc., Norwalk, Conn., we treated nitrile examination gloves according to ASTM protocol 04-123409-106 “Rapid Germicidal Time Kill.” Briefly, about 50 μL of an overnight culture of Staphylococcus aureus (ATCC #27660, 5×10^8CFU/mL) was applied to the glove material. After a total contact time of about 6 minutes the glove fabric was placed into a neutralizing buffer. Surviving organisms were extracted and diluted in Letheen broth. Aliquots were spread plated on Tryptic Soy Agar plates. Plates were incubated for 48 hours at 35° C. Following incubation the surviving organisms were counted and the colony forming units (CFU) were recorded. The reduction (log10) in surviving organisms from test material versus control fabric was calculated:
Log10 CFU/swatch Control−Log10 CFU/swatch Test Article=Log10 Reduction.

## polyhexamethylene biguanide
Microtextured nitrile glove, machine applied at 0.03 g/glove
  log reduction of Staphylococcus aureus: greater than four
Hand sprayed with no heat
  log reduction of organisms: greater than one
Machine sprayed under heated conditions
  log reduction of organisms: greater than 5 log
